{"source": "paper PMC9013686", "about": "“Inter-individual variation in chlorpyrifos toxicokinetics characterized by physiologically based kinetic (PBK) and Monte Carlo simulation comparing human liver microsome and Supersome™ cytochromes P450 (CYP)-specific kinetic data as model input” (Archives of Toxicology, 2022)", "key": {"RBC AChE": {"system": "RBC AChE", "assay": "PBK model-based reverse dosimetry and BMD analysis of RBC AChE inhibition", "parameters": "species or system human", "description": "In the present study, PBK model-based reverse dosimetry was applied to translate the in vitro rhAChE inhibition concentration–response curve into in vivo RBC AChE inhibition dose–response curves first for the average adult population.\nThe external dose values thus obtained together with corresponding inhibitory effects were used to construct RBC AChE inhibition dose–response curves for the average population.\nA BMD analysis was performed to derive a POD from the predicted in vivo dose–response curves obtained for the average population. In the present study, the BMDL10 values were used as POD based on the fact that the United States Environmental Protection Agency (USEPA) also used a 10% effect level to define a health based guidance value (USEPA [2011], [2014]). BMD analysis was carried out using the Benchmark Dose Software version 3.1.2 (USEPA [2019]), with exponential or hill models because of their adequacy in predicting continuous data. The BMDL10 value with the lowest AIC was chosen and further evaluated by comparing the obtained values with reported BMDL10 by USEPA ([2011], [2014])."}, "CYP2B6": {"molecular_target": "T1, CYP2B6 (Homo sapiens, UniProt P20813)", "T1 sequence (P20813 1-491)": "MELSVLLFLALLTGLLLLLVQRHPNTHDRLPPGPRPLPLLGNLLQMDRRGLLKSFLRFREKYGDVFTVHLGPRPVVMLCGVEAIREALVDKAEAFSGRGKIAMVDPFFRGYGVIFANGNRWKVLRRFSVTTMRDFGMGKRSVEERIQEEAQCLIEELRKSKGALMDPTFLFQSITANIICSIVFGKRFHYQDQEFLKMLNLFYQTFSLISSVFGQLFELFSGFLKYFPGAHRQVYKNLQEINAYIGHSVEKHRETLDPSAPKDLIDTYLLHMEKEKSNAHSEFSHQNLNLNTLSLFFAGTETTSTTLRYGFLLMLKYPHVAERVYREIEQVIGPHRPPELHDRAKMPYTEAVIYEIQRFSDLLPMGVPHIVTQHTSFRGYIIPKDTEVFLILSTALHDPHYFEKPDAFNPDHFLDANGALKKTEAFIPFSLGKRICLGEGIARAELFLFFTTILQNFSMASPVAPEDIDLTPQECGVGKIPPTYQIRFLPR", "assay": "Supersome CYP2B6 kinetic incubations", "type": "in vitro ADME", "parameters": "purchased Corning (Amsterdam, The Netherlands); host or cells: baculovirus-transfected insect cells", "details": "for Scaled Vmax(app): CYP2B6 scaled to whole liver by Eq. 3; for Vmax (app) / Km: Supersome CYP2B6; for Km: human, recombinant CYP2B6 Supersomes, pH 7.4, Km(app)", "description": "The final incubations were carried out in 50 mM Tris–HCl (pH 7.4) containing 5 mM MgCl2, 1 mM EDTA (as an A-esterase PON1 inhibitor) (Bizoń and Milnerowicz [2018]), 50 µM iso-OMPA (as a B-esterases inhibitor) (Lane et al. [2006]), Supersome™ isoform (at final concentration of 0.005 nmol CYP/ml for 1A2, 0.001 nmol CYP/ml for 2B6, 0.01 nmol CYP/ml for 2C19, and 0.01 nmol CYP/ml for 3A4) and CPF at different final concentrations (0.05, 0.1, 0.25, 0.5, 1, 5 and 10 µM for 1A2, 0.05, 0.1, 0.25, 0.5, 1, 5 10 and 25 µM for 2B6, 1, 2.5, 5, 10, 25 and 50 µM for 2C19, and 0.5, 1, 2.5, 5, 10, 25 and 50 µM for 3A4), which were added from 100 times concentrated stock solutions in ACN. After 1 min preincubation in a 37 °C water bath, 5 µl NADPH (final concentration 1 mM) was added to the incubation system. Control incubations were performed by replacing NADPH with the same amount of Tris–HCl (pH 7.4). The total volume of the incubation mixtures was 200 µl. The incubations lasted for 2 min at 37 °C and were terminated by addition of 50 µl ice cold ACN and subsquently put on ice. After that, samples were centrifuged at 16,000 g (4 ℃) for 5 min and supernatants of samples were separated into two equal portions for Ultra-Performance Liquid Chromatography-Photodiode Array (UPLC-PDA) and Liquid Chromatography Mass Spectrometry (LC–MS/MS) analysis, respectively.\nTo normalize for differences in intrinsic CYP activity between Supersome™ and pooled HLMs and enable scaling of the activities to the in vivo situation, CYP-specific ISEF values need to be established. […] The incubation method was similar as used for the CPF kinetic incubation assay described above, except that certain incubation conditions were replaced by the conditions listed in Table 1. The samples obtained were analyzed by UPLC-PDA for acetaminophen, 4-hydroxymephenytoin, and 6β-hydroxytestosterone formation catalyzed by 1A2, 2C19 and 3A4, or LC–MS/MS for (±)-hydroxybupropion formation catalyzed by 2B6.\nAs mentioned before, the in vitro apparent kinetic parameters (Vmax and Km) for pathway 1 and pathway 2 in the HLM-based approach, and pathway 3 in both approaches were all obtained directly from reported studies using pooled HLMs (Buratti et al. [2003]; Sams et al. [2004]; Zhao et al. [2019]). Therefore, no extra calculations were required to define these parameters. The kinetic parameters for the ISEF calculation, pathway 1 and 2 in the Supersome™-based approach, and pathway 4 in both approaches (25 individuals) were all obtained by fitting the experimental data to the Michaelis–Menten model using GraphPad (GraphPad Prism 5.0 software, San Diego, CA, USA). It should be noted that the kinetic parameters for pathway 4 used in the two approaches were calculated as mean of the kinetic parameters (Vmax and Km) obtained using 25 individual HP samples (with correction for total protein concentration of each plasma sample).\nThe in vivo Kmi values were assumed to be equal to the apparent Kmi(app) values (µM) obtained in the in vitro incubations, while the in vivo Vmaxi for each CYP isoform was derived from their corresponding apparent CYP isoform Vmaxi(app) (pmol/min/pmolCYP) using Eq. 3:3 Vmaxi=Vmaxiapp×CYPiabundance×ISEF×60×MPL×1000×VL/1,000,000,"}}, "data": [{"compound": "CCOP(=S)(OCC)Oc1nc(Cl)c(Cl)cc1Cl", "note": "[CPF, Chlorpyrifos]", "values": [{"measurement": "predicted BMDL10 lower than reported human model-derived BMDL10", "setting": "RBC AChE; HLM-based biphasic PBK model versus USEPA [2014]", "value": 1.8, "unit": "fold"}, {"measurement": "predicted BMDL10 lower than reported human model-derived BMDL10", "setting": "RBC AChE; Supersome-based PBK model versus USEPA [2014]", "value": 1.9, "unit": "fold"}, {"measurement": "BMDL10 of HLM-based approach with biphasic kinetics versus HLM-based approach without high affinity component", "setting": "RBC AChE; average population", "value": "sixfold lower"}, {"measurement": "difference in BMDL10 between HLM-based (biphasic) and Supersome-based PBK model", "setting": "RBC AChE; average population", "value": 1.04, "unit": "fold"}, {"measurement": "predicted BMDL10 higher than reported human model-derived BMDL10", "setting": "RBC AChE; non-biphasic HLM-based PBK model versus USEPA [2014]", "value": 3.3, "unit": "fold"}, {"measurement": "Scaled Vmax(app)", "setting": "CYP2B6; Pathway 1 (CPF to CPO)", "value": 203.94, "unit": "µmol/h"}, {"measurement": "Vmax (app)", "setting": "CYP2B6; Pathway 1 (CPF to CPO)", "value": 7.76, "unit": "pmol/min/pmolCYP"}, {"measurement": "Scaled Vmax(app)", "setting": "CYP2B6; Pathway 2 (CPF to TCPy)", "value": 144.28, "unit": "µmol/h"}, {"measurement": "Vmax (app)", "setting": "CYP2B6; Pathway 2 (CPF to TCPy)", "value": 5.49, "unit": "pmol/min/pmolCYP"}, {"measurement": "Km", "setting": "CYP2B6; Pathway 1 (bioactivation of CPF to CPO)", "value": 0.14, "unit": "µM"}, {"measurement": "Km", "setting": "CYP2B6; Pathway 2 (detoxification of CPF to TCPy)", "value": 1.28, "unit": "µM"}]}]}
